Results published in paper PMC11763059, “GENI as an AMPK Activator Binds α and γ Subunits and Improves the Memory Dysfunction of Alzheimer’s Disease Mouse Models via Autophagy and Neuroprotection” (Antioxidants, 2025).

Key:
BV-2 microglia = assay: BV-2 microglial activity assay (Iba1 staining); format: cell-based, murine; conditions: GENI 1, 3, and 10 μM, LPS 1 μg/mL
Protocol: BV-2 cells (2.5 × 10^4) were seeded in 24-well plates. […] We then removed the medium, washed the cells three times with PBS, and fixed the cells with 4% paraformaldehyde (500 μL/well) for 20 min at room temperature. We washed the cells three times with PBS and added Quick Block^TM immunostaining blocking solution (500 μL/well) to block for 60 min. After removing the blocking solution, we added 200 μL of the primary antibody (Anti-Iba1 rabbit monoclonal antibody, 1:1000, abcam178847) to each well and incubated the samples overnight at 4 °C. The next day, the supernatant was discarded, washed three times with PBS, and incubated with the secondary antibody Cart anti-rabbit IgG (1:1000) at room temperature for 1 h. Nuclei were stained with DAPI (250 μL/well) for 5 min, and the fluorescence was observed under a fluorescent inverted microscope (Olympus IX53, Tokyo, Japan).

PC12 cells = assay: RT-PCR analysis of gene expression in PC12 cells; format: cell-based, Rat; conditions: PC12 cells under H2O2 induction
Protocol: RT-PCR analysis was performed as described in the material and methods section in Supplementary Information.
Supplementary information […]
1.1. Real-time polymerase chain reaction (RT-PCR) analysis
PC12 cells (2 × 106) were seeded in 60 mm dishes and treated with RES (10 μM) or GENI (3 or 10μM) for 24h. Total RNA was extracted with TRIzol Reagent (Beijing Cowin Biotech Company, Beijing, China). RNA content was determined using an Eppendorf Biophotometer Plus (Eppendorf Company, Hamburg, Germany). Transcription was performed using 5 μg of total RNA, Oligo (dT)20 primer and reverse transcriptase (Beijing Cowin Biotech Company, Beijing, China). Transcript levels were quantified by real-time PCR (AB SCIEX, Massachusetts, USA) and SYBR Premix EX Taq™ (Takara, Otsu, Japan). Primers (Sangon Biotech Co. Ltd., Shanghai, China) used in this study are given in Supplementary Table S3. The thermocycling parameters for PC12 cells were as follows: SOD1 and SOD2: 95 ℃ for 2 min, then 40 cycles, 54 ℃ for 35 seconds; Bcl-x1 and Nrf2: 95 ℃ for 2 min, then 40 cycles, 95 ℃ for 15 seconds, 60 ℃ […]
for 15 seconds, 68 ℃ for 20 seconds. All results were normalized to GAPDH RNA levels, and relative mRNA transcript levels were calculated using the ΔΔCt formula. […]
For NO content evaluation, firstly, the NO assay kit was removed, and Griess Reagents I and II were warmed to room temperature. The standard substance was diluted with cell culture solution to 0, 1, 2, 5, 10, 20, 40, 60 and 100 μM. Secondly, 50 μL of standard reagent and the diluted sample were added into a 96-well plate. […]
For IL-6 content evaluation, we prepared samples, standards and biotinylated antibody working […]
15.625 and 0 pg/mL for use, and blank holes were set. The 100 μL sample or standard substance of different concentrations was added to the corresponding hole, and about 50 μL of biotinylated antibody working liquid was added to the sample and standard substance hole. The reaction hole was sealed with sealing plate adhesive paper. The working liquid of the enzyme conjugate was prepared 30 min in advance by incubating at room temperature with a 300 rpm micro-oscillator for 120 min. The sample was placed at room temperature away from light, and the board was washed five times after incubation. In addition to the blank holes, 100 μL of enzyme conjugate working liquid was added to each hole, and the reaction holes were sealed with plate adhesive paper. The board was incubated at room temperature with a 300 rpm micro-oscillator for 60 min and then washed five times. […] About 100 μL of termination solution was added to each hole, and we measured the OD450 value immediately after mixing with a microplate reader (BioTek, California, USA).

natural aging AD mice = assay: Behaviour tests in naturally aged mice with AD; format: in vivo
Protocol: Each group had 10 mice. GENI was dissolved in ultrapure water and administered by gavage, whereas Dor was dissolved in normal saline. The pH was adjusted to pH 5 with 0.1 M hydrochloric acid to the clarified solution and administered by intraperitoneal injection. The dosing experiment also lasted 10 weeks. Animal behavioral experiments and sampling at the end of the animal experiment were performed as described above.
The Y-maze is mainly used to study the spatial working memory ability of rodents. The Y-maze consisted of three equal-length arms (50 cm × 18 cm × 35 cm), and the angle between each two arms was 120 degrees. The mice were placed at the end of any arm of the Y-maze and allowed to explore freely for 8 min. The behavioral changes including the total number of entries and alternation (successively entering all three arms of the Y-maze once in turn) were recorded. Percentage altercation = alternation/(entries-2) × 100%. The Y-maze could effectively reflect the ability of animals to recognize and remember novel environments.
NOR was used to detect memory in rodents. We prepared a 40 × 40 × 40 cm square box, camera equipment, and behavioral analysis software. We chose three objects A, B, and C, where objects A and B were exactly the same, and object C was very different from objects A and B. After the start of the experiment, the mice were allowed to acclimate freely in the experimental apparatus for 10 min. Objects A and B were placed into the box, and the mice were allowed to explore for 5 min. We then recorded the exploration time and times. After 1 h, A and C or B and C were placed into the box. After letting the mice explore for 5 min, we recorded the exploration time of the original object and the new object. Discrimination index = exploration time of new objects/total exploration time × 100%.
The MWM installation consisted of a circular pool (120 cm in diameter and 50 cm in height), camera equipment, and a computer analysis system. In the first stage, the platform position was fixed, and mice were placed into the pool from any three of the four origins on the pool facing away from the pool wall. The time when it took for the mouse to find the platform within 120 s, called escape latency, was recorded. The training period lasted 4 days. The escape latency of the mice was recorded daily, and the average value was used as an index to evaluate the ability of learning and memory. On the 5th day, the platform was evacuated by the experimenter. The mice were placed against the platform into the water from any water entry point, and they were allowed to swim freely for 60 s. We then recorded the number of times that they crossed the platform.

## CC(C)CCOC(=O)C1=CO[C@@H](O[C@@H]2O[C@H](CO)[C@@H](O)[C@H](O)[C@H]2O)C2C(CO)=CCC12 (some centres unmarked) [GENI, Geniposidic 4-isoamyl ester]
BV-2 microglia
  LPS-induced activation in BV-2 microglia: inhibiting
PC12 cells
  abundance of Bcl-x1 mRNA: significantly increased
  abundance of Nrf2 mRNA: significantly increased
PC12 cells; GENI 3 or 10 μM 24 h
  gene expression of SOD1: increased
  gene expression of SOD2: increased
Natural aging AD mice; GENI 25 mg/kg
  escape latency, first 4 days of the training phase, water maze test: significantly reduce
  number of crossing platforms, fifth day, water maze test: increase
Natural aging AD mice; GENI 25 mg/kg intragastrically once a day
  cognitive function (alternating arm entry rate, novel object recognition index) in Y maze and NOR tests: improvement
